According to US20180092845A1, “ENZYME-RESPONSIVE NANOPARTICLES” (THE REGENTS OF THE UNIVERSITY OF CALIFORNIA, priority 2015, published 2018):

How the values were obtained:
in vivo = settings: female, nu/nu, mouse, in vivo, iv
Description: (§1) Mouse weight was recorded once daily until all animals in the cohort returned to, or surpassed, their weight on the day of injection. […] Two additional cohorts (6 mice, 3 per group) were treated with 15 mg/kg and 30 mg/kg of clinically formulated paclitaxel (a 6 mg/mL suspension in 1:1 ethanol:Cremophor EL®, diluted with 1×DPBS prior to injection).

healthy nu/nu mice [1] = assay: in vivo; settings: 30 mg/kg IV; listed as clinically formulated paclitaxel
Description: as §1

healthy nu/nu mice [2] = settings: suspension in 1:1 Cremophor EL to ethanol; literature; cited from earlier work

CC(=O)O[C@H]1C(=O)[C@@]2(C)[C@H]([C@H](OC(=O)c3ccccc3)[C@]3(O)C[C@H](OC(=O)[C@H](O)[C@@H](NC(=O)c4ccccc4)c4ccccc4)C(C)=C1C3(C)C)[C@]1(OC(C)=O)CO[C@@H]1C[C@@H]2O [PTX, paclitaxel]
LD50 (in vivo): 30 mg/kg
MTD (in vivo): 15 mg/kg
lethality (healthy nu/nu mice [1]): 1 out of the 3 animals died within 30 minutes post-injection and also died within an hour of injection
MTD in mice previously established (healthy nu/nu mice [2]): 10 to 30 mg/kg
